Reference: patent publication US11833225B2, “Methods and compositions for efficient gene deletion” (CRISPR Therapeutics AG, priority 2018, dated 2023)
Where “and” joins values, the source holds several entries; their conditions need not be identical. Equal entries are not always repeated.

Assays:
Type in all cases: cell-based, human
CCR5 gene = assay: CCR5 deletion frequency by ddPCR in edited CD34+ cells
Source text: The C-C chemokine receptor type 5 (CCR5) is a key player in HIV infection due to its major involvement in the infection process. A limited number of people harbor a genomic 32-bp deletion in the CCR5 gene ([…]), leading to expression of a truncated gene product that provides resistance to HIV-1 infection in individuals homozygous for this mutation. Dual gRNAs were designed to target this region of the CCR5 gene. FIG. 8 diagrams the CCR5 gene and the location of TB48 gRNA and TB7 gRNA target sites (bordering a 735 bp deletion).
Human peripheral blood CD34+ cells were cultured and as electroporated with Cas9 and the two gRNAs essentially as described above in Example 1. Nu7441 was delivered to the cells (0, 1.25, 2.5, 5 μM) immediately after electroporation. Deletion efficiency was determined by ddPCR two days after electroporation.
Additional gRNAs were designed to delete larger segments from CCR5, i.e., TB74 and TB 25 for a 5700 bp deletion, and TB48 and TB25 for a 2672 bp deletion (FIG. 10). The gRNAs (and Cas9) were introduced at two dose levels (0.75 or 1.5 μg each) and cells were exposed to 0, 2.5, or 5 μM Nu7441.
Another DNA-PK inhibitor, M3814, was tested to determine whether deletions were increased in its presence. Populations of newly electroporated cells were exposed to four concentrations of M3814 ranging from 0.078 μM to 0.625 μM.

HPFH5 [1] = assay: Colony forming assay (CFU), clonal editing analysed by ddPCR
Procedure: The effects of Nu7441 on CRISPR-Cas9 gene editing using the dual gRNA approach (HPFH5-1 and HPFH5-D) was measured using a colony forming assay (CFU). CFU assay is an in vitro cellular assay that measures the proliferation and differentiation potential of human HSPCs. Following electroporation with dual gRNAs/Cas9 and treatment with Nu7441 (2.5 μM), CD34+ hHSPCs were diluted and plated in suspension in the presence of methylcellulose to promote stem cell differentiation. After 14 days, colonies grown from single erythroid-lineage HSPCs were analyzed for gene editing by ddPCR (Table 3).

CD34+ hHSPCs [2] = assay: Cell proliferation (fold growth) by hemocytometer counting
Procedure: Cell proliferation was also assessed using a cell counting device (hemocytometer).

HPFH5 [3] = assay: Tracking of Indels by Decomposition (TIDE), single gRNA indel and MMEJ species
Procedure: Tracking of Indels by Decomposition (TIDE) was utilized to determine if treatment with Nu7441 results in increased single gRNA indels as a result of NHEJ inhibition. This technology precisely determines the spectrum and frequency of indels and MMEJ species generated by single HPFH5-1 gRNA or HPFH5-D gRNAs in the presence of Nu7441 by comparing the results of standard PCR reactions and Sanger sequencing reactions. Cells were electroporated with 1.5 μg Cas and 1.5 μg HPFH5-D or 1.5 μg HPFH5-1 or no gRNA. Cells were treated with 0, 0.625 μM, 1.25 μM, 2.5 μM, or 5 μM Nu7441.

CD34+ hHSPCs [4] = assay: Cell viability by Trypan blue
Procedure: Cell viability was also assessed using Trypan blue, a standard method for detecting hematopoietic stem cell viability.

HPFH5 [5] = assay: HPFH5 deletion frequency by droplet digital PCR (ddPCR) in edited CD34+ hHSPCs; conditions: increased from 30% without inhibitor, dose-dependent, 0.3125-5 μM; Cas9 + dual gRNAs; 48 hours post electroporation
Procedure: Mobilized human peripheral blood (mPB) CD34+ cells from three independent human donors were cultured in serum free CellGro® media including 100 ng/ml recombinant human stem cell factor (SCF), 100 ng/ml recombinant human Flt 3-Ligand (FLT3L), and 100 ng/ml Thrombopoietin (TPO). 100,000 cells per condition were electroporated using Lonza Amaxa 4D electroporator without any CRISPR/Cas9 editing components as a negative control (mock electroporation sample), with HPFH5-1+HPFH5-D sgRNAs and Cas9 protein (1+D), or with HPFH5-5+HPFH5-D sgRNAs and Cas9 protein (5+D). The recombinant S. pyogenes Cas9 protein was flanked by two SV40 nuclear localization sequences (NLSs). These experiments were performed using a ribonucleoprotein (RNP) 1:1 weight ratio of gRNA to Cas9.
The deletion frequency was determined by droplet digital PCR (ddPCR) two days after electroporation for each cell population (i.e., mock, 1+D, and 5+D).
Dual gRNAs (HPFH5-1 and HPFH-D, or HPFH5-5 and HPFH-D), as well as Cas9 protein, were also titrated in CD34+ hHSPCs. […]
The deletion frequency was determined by droplet digital PCR (ddPCR) two days after electroporation for each of the cells electroporated with HPFH5-1+HPFH5-D gRNAs, or cells electroporated with HPFH5-5+HPFH5-D gRNAs.

HPFH5 [6] = assay: Single gRNA and Cas9 titration, single guide editing percentage in CD34+ hHSPCs; conditions: 48 hour post-electroporation
Source text: Single HPFH5-1, HPFH5-5 and HPFH5-D gRNAs, as well as Cas9 protein, were titrated in CD34+ hHSPCs to determine the effects on deletion efficiency.

[7] = HPFH5-1 + HPFH5-D gRNAs/Cas9 + 2.5 μM Nu7441
[8] = HPFH5-1 + HPFH5-D gRNAs/Cas9 + 2.5 μM Nu7441, colonies after 14 days

COc1ccc([C@@H](O)c2cc(-c3ncnc4cc(N5CCOCC5)ccc34)c(F)cc2Cl)nn1 [M3814, (S)-(2-chloro-4-fluoro-5-(7-morpholinoquinazolin-4-yl)phenyl)(6-methoxypyridazin-3-yl)methanol]
percentage of deletions in CCR5 (CCR5 gene; four concentrations from 0.078 μM to 0.625 μM, TB74+TB25 or TB48+TB25 gRNAs, 48 hours post electroporation): increased in a dose-dependent manner
percentage increase in deletions in CCR5 compared with Nu7441 (CCR5 gene; highest concentration (0.625 μM)): about the same percentage increase in deletions as Nu7441

O=c1cc(N2CCOCC2)oc2c(-c3cccc4c3sc3ccccc34)cccc12 [Nu7441, 8-(4-dibenzothienyl)-2-(4-morpholinyl)-4H-1-benzopyran-4-one]
increase of percentage of HPFH5 heterozygotes relative to untreated cells (HPFH5 [1]; 2.5 μM Nu7441): 3 fold
% Alleles edited from clones (HPFH5 [1]; [7]): 40%
% Edited cells (HPFH5 [1]; [7]): 63%
Bulk editing from ddPCR (HPFH5 [1]; [7]): 43%
% Heterozygotes (HPFH5 [1]; [8]): 46.2%
% Homozygotes (HPFH5 [1]; [8]): 17.3%
% WT (HPFH5 [1]; [8]): 36.5%
# Edited alleles (HPFH5 [1]; HPFH5-1 + HPFH5-D gRNAs/Cas9 + 2.5 μM Nu7441, of 104 total alleles (52 clones)): 42
increase of number of alleles edited from clones (HPFH5 [1]; in the presence of Nu7441 (2.5 μM)): 2 fold
cell proliferation (fold growth) (CD34+ hHSPCs [2]; concentrations of less than 5 μM, 48 hours post electroporation): did not adversely affect cell proliferation
cell proliferation (CD34+ hHSPCs [2]; highest concentration (5 μM)): reduced
frequency of deletion in CCR5 (CCR5 gene; TB48 + TB7 gRNAs (735 bp deletion), 0, 1.25, 2.5, 5 μM, two days after electroporation): increased the frequency of deletion in CCR5 in a dose-dependent manner
increase of percent of deletions in CCR5 (CCR5 gene; TB48 + TB7 gRNAs, highest dose (5 μM)): more than two-fold
increase of the percent of deletions in CCR5 (CCR5 gene; TB74 + TB25 (5700 bp) and TB48 + TB25 (2672 bp) gRNAs, 0.75 or 1.5 μg each, 2.5 or 5 μM, all conditions): 20-70%
potential microhomology-mediated end joining (MMEJ) species (HPFH5 [3]; Cas9 and HPFH5 gRNA): increased
effect on single guide editing (indel frequency) (HPFH5 [3]; HPFH5-1 gRNA 1.5 μg + Cas9 1.5 μg, 0.625-5 μM): not major effects
effect on indel frequency (HPFH5 [3]; HPFH5-D gRNA 1.5 μg + Cas9 1.5 μg, higher concentrations): increased indel frequency
number of wild-type sequences in HPFH5 relative to untreated cells (HPFH5 [3]; HPFH5-D gRNA, 5 μM): decrease
percentage of 10-15 base pair deletions relative to untreated cells (HPFH5 [3]; HPFH5-D gRNA, 5 μM): increase
cell viability (CD34+ hHSPCs [4]; CCR5 editing with TB48 + TB7 gRNAs, highest concentration (5 μM)): decreased slightly
cell viability (CD34+ hHSPCs [4]; concentrations of less than 5 μM, 48 hours post electroporation, HPFH5 dual gRNAs): did not adversely affect cell viability
cell viability (CD34+ hHSPCs [4]; highest dose 5 μM, HPFH5 dual gRNAs): slightly reduced
HPFH5 deletion efficiency reached with Nu7441 (HPFH5 [5]): 45% and 40%

B1: HPFH5-1: 3′ gRNA targeting the HPFH5 locus, SEQ ID NO: 2, used with Cas9 protein (nucleic acid)
guide: AUUUUUCUUAUUCAAUACCUGUUUUAGAGCUAGAAAUAGCAAGUUAAAAUAAGGCUAGUCCGUUAUCAACUUGAAAAAGUGGCACCGAGUCGGUGCUUUU
modifications: listed as RNA, chemistry not given here
% Single Guide Editing (HPFH5 [6]; gRNA 1 μg, Cas9 1 μg): 35.6%
% Single Guide Editing (HPFH5 [6]; gRNA 2 μg, Cas9 2 μg): 62.9%
% Single Guide Editing (HPFH5 [6]; gRNA 3 μg, Cas9 3 μg): 72.1%
% Single Guide Editing (HPFH5 [6]; gRNA 4 μg, Cas9 4 μg): 75.7%

B2: HPFH5-5: 3′ gRNA targeting the HPFH5 locus, SEQ ID NO: 4, used with Cas9 protein (nucleic acid)
guide: CUCCCCCACUCACAGUGACCGUUUUAGAGCUAGAAAUAGCAAGUUAAAAUAAGGCUAGUCCGUUAUCAACUUGAAAAAGUGGCACCGAGUCGGUGCUUUU
modifications: listed as RNA, chemistry not given here
% Single Guide Editing (HPFH5 [6]; gRNA 1 μg, Cas9 1 μg): 40.5%
% Single Guide Editing (HPFH5 [6]; gRNA 2 μg, Cas9 2 μg): 56.5%
% Single Guide Editing (HPFH5 [6]; gRNA 3 μg, Cas9 3 μg): 60.3%
% Single Guide Editing (HPFH5 [6]; gRNA 4 μg, Cas9 4 μg): 66.3%

B3: HPFH5-D: 5′ gRNA targeting the HPFH5 locus, SEQ ID NO: 6, used with Cas9 protein (nucleic acid)
guide: CUGUUGGUUUCAGAGCAGGUGUUUUAGAGCUAGAAAUAGCAAGUUAAAAUAAGGCUAGUCCGUUAUCAACUUGAAAAAGUGGCACCGAGUCGGUGCUUUU
modifications: listed as RNA, chemistry not given here
% Single Guide Editing (HPFH5 [6]; gRNA 1 μg, Cas9 1 μg): 20.8%
% Single Guide Editing (HPFH5 [6]; gRNA 2 μg, Cas9 2 μg): 61.4%
% Single Guide Editing (HPFH5 [6]; gRNA 3 μg, Cas9 3 μg): 70.9%
% Single Guide Editing (HPFH5 [6]; gRNA 4 μg, Cas9 4 μg): 80.4%
